# Target: T1, human PPARγ (Homo sapiens, UniProt P37231)
# T1 construct: 1.6 kb of fragment of the prepared plasmid pGEMT-hPPARg2 including human PPARγ gene; expressed in transfected cells; host or cells: CV-1 cells, transient transfection with pCI-hPPARg2, pCI-hRXRa and the reporter pGL3-PPRE3-TK
# T1 sequence (P37231 1-505): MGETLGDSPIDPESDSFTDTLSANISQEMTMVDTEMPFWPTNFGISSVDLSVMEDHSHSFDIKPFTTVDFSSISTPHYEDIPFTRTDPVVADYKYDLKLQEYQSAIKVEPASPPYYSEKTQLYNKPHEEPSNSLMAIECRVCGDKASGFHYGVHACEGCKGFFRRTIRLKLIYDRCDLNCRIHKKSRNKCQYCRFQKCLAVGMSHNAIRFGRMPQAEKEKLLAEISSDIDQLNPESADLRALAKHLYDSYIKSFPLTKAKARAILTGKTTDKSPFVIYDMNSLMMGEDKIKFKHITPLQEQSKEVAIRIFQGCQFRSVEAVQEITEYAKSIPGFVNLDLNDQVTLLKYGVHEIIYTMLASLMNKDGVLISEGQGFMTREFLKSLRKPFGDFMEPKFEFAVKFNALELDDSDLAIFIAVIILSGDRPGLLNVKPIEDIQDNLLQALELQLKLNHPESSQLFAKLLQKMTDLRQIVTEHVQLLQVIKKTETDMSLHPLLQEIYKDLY
# T1 sequence (P19793 1-462 partner): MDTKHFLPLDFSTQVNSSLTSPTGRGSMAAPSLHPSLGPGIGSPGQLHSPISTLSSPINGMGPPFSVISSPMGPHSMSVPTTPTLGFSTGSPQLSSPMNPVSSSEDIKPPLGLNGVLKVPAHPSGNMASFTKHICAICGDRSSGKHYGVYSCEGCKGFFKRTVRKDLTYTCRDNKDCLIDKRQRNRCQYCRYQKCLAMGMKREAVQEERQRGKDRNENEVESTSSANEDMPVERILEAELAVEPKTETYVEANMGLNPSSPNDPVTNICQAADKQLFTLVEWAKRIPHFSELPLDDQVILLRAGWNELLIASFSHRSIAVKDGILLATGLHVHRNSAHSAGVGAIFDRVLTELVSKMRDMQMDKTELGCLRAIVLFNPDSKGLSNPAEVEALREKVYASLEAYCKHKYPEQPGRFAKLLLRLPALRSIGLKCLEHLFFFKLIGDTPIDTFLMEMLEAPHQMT
# Assay: Human PPARγ antagonist assay (luciferase reporter in transfected CV-1 cells)
# Format: cell-based
# Settings: CV-1 cells expressing human PPARγ and RXRα with reporter plasmid; pioglitazone 1 μM as stimulant; 24 hours; read-out: Human PPARγ antagonist activities, Inhibition IC50
# Procedure: CV-1 cells (96 well plate), where human PPARγ and RXRα has expressed in the transient transfection of reporter plasmid (see reference 5a) were washed once with PBS (100 μL/well), and then supplemented with 100 μL/well […], as well as pioglitazone (not limited to pioglitazone shown as an example, but may be any PPARγ agonist) at a final concentration of 1 μM as a stimulant were added, and incubated in a 5% CO2 incubator at 37° C. for 24 hours. After removing the medium, the CV-1 cells were washed once with PBS (100 μL/well), and supplemented with 60 μL/well of 1× Passive Lysis Buffer (manufactured by Promega Corporation). The CV-1 cells were incubated at room temperature for 30 minutes, stirred, and then by using Dual-Luciferase Reporter Assay System (manufactured by Promega Corporation), luciferase activities of firefly and renilla were measured using 1420 ARVO Multilabel Counter (manufactured by Wallac Oy). Also, the same experiments as that described above were respectively carried out for the cases where only the above-mentioned stimulants (100 nM, 1 μM, 10 μM) were used, where only the above-mentioned test compounds were used, or where neither was used (nonsupplemented), and luciferase activities of firefly and renilla were measured. Values corrected by dividing the firefly luciferase activities by the renilla luciferase activities were calculated as specific activities and used for evaluations.
# Human PPARγ2 antagonist activities of the test compounds were evaluated by using a percentage (inhibition) where the specific activity in case only […] was added is regarded as 0% and the specific activity in case the test compound and the stimulant were not added is regarded as 100%. Moreover, the concentration of the test compound indicating the inhibition rate of 50% was calculated as the IC50 value. Also, human PPARγ2 agonist activities of the test compounds were evaluated by using a percentage (activity) where the specific activity when nonsupplemented is regarded as 0% and the specific activity in case only 10 μM stimulant was added is regarded as 100%, from the specific activity in case only the test compound is used.
# CV-1 cells were cultured in DMEM medium (manufactured by Invitrogen Corporation) including 10% fetal bovine serum (manufactured by Dainippon Pharmaceutical Co., Ltd.) in 225T-Flask (manufactured by Corning Costar). The cells were detached by 0.5 g/L trypsin-0.2 g/L EDTA (ethylene diamine tetra-acetic acid) (manufactured by Invitrogen Corporation), and then suspended in the DMEM medium including 10% fetal bovine serum to a cell concentration of 2×10^5 cells/mL. Thereafter, the cells were seeded into 96 well plate at 2×10^4 cells/0.1 mL/well, incubated in the 5% CO2 incubator at 37° C. overnight, and then the plasmids prepared by the above-mentioned reference 1a, reference 3a, and reference 4a were transfected into cells by using a lipofectamine reagent (manufactured by Invitrogen Corporation) according to the attached manual.
# Namely, after CV-1 cells were cultured overnight, the cells were washed with PBS (100 μL/well). Thereafter the cells were incubated for 5 hours at 37° C./5% CO2 in the MEM medium (manufactured by Invitrogen Corporation) including 430 ng/mL of human PPARγ expression plasmid (pCI-hPPARg2) prepared by the reference 1a, 430 ng/mL of human RXRα expression plasmid (pCI-hRXRa) prepared by the reference 3a, and 140 ng/mL of the reporter plasmid (pGL3-PPRE3-TK) prepared by the reference 4a, 10 ng/mL of phRL-TK vector (manufactured by Promega Corporation) and 2 μL/mL of lipofectamine.
row,IC50 [nM],SMILES
1,2190,"COc1cc(Cn2c3ccccc3c3c(OC(C(=O)O)c4ccccc4)cccc32)ccc1OCc1nc(-c2ccccc2)oc1C (single isomer, unassigned) [Example 51, sodium (−)-2-{9-[3-methoxy-4-((5-methyl-2-phenyl-oxazole-4-yl)methoxy)-benzyl]-9H-carbazole-4-yloxy}-2-phenylacetate]"
2,992,"COc1cc(Cn2c3ccccc3c3c(OCc4ccc(C(=O)O)cc4)cccc32)ccc1OCc1nc(-c2ccccc2)oc1C [Example 46, sodium 4-((9-(4-((5-methyl-2-phenyloxazole-4-yl)methoxy)-3-methoxybenzyl)-9H-carbazole-5-yloxy)methyl)benzoate]"
3,3150,"COc1cc(Cn2c3ccccc3c3c(OCC(=O)O)cccc32)ccc1OCc1nc(-c2ccccc2)oc1C [Example 1, 2-{9-[3-methoxy-4-((5-methyl-2-phenyl-oxazole-4-yl)methoxy)-benzyl]-9H-carbazole-4-yloxy}acetic acid]"
4,484,"CC[C@@H](Oc1cccc2c1c1ccccc1n2Cc1ccc(OCc2nc(-c3ccccc3)oc2C)c(OC)c1)C(=O)O [Example 42, sodium (R)-2-{9-[3-methoxy-4-((5-methyl-2-phenyl-oxazole-4-yl)methoxy)-benzyl]-9H-carbazole-4-yloxy}butyrate]"
5,281,"CCCC(Oc1cccc2c1c1ccccc1n2Cc1ccc(OCc2nc(-c3ccccc3)oc2C)c(OC)c1)C(=O)O (racemic) [Example 11, (±)-2-{9-[3-methoxy-4-((5-methyl-2-phenyl-oxazole-4-yl)methoxy)-benzyl]-9H-carbazole-4-yloxy}valeric acid]"
6,308,"COc1cc(Cn2c3ccccc3c3c(O[C@H](C(=O)O)C(C)C)cccc32)ccc1OCc1nc(-c2ccccc2)oc1C [Example 40, sodium (S)-2-{9-[3-methoxy-4-((5-methyl-2-phenyl-oxazole-4-yl)methoxy)-benzyl]-9H-carbazole-4-yloxy}-3-methyl-butyrate]"
7,546,"COc1cc(Cn2c3ccccc3c3c(OC(C(=O)O)c4ccccc4)cccc32)ccc1OCc1nc(-c2ccccc2)oc1C (racemic) [Example 26, (±)-2-{9-[3-methoxy-4-((5-methyl-2-phenyl-oxazole-4-yl)methoxy)-benzyl]-9H-carbazole-4-yloxy}-2-phenylacetic acid]"

# Same assay, conditions: at 10 μM test compound; CV-1 cells expressing human PPARγ and RXRα; pioglitazone as stimulant; read-out: Human PPARγ antagonist activities, Inhibition % at 10 μM
row,inhibition at 10 µM [%],SMILES
1,47.4,"COc1cc(Cn2c3ccccc3c3c(OCC(=O)O)cccc32)ccc1OCc1nc(-c2ccco2)oc1C [Example 2, 2-{9-[4-((2-(furan-2-yl)-5-methyl-oxazole-4-yl)methoxy)-3-methoxy-benzyl]-9H-carbazole-4-yloxy}acetic acid]"

# Reference: patent publication US8329913B2, “Carbazole derivative, solvate thereof, or pharmaceutically acceptable salt thereof” (Zeria Pharmaceutical Co., Ltd., priority 2004, dated 2012)
